Columns and labels:
xylene-induced cystitis = assay: xylene-induced cystitis, plasma protein extravasation (Evans blue); assay type: in vivo, rat; settings: 1 mg/ml s.c. 1 h before xylene; 2 h after instillation; xylene alone 13.21±3.68; p<0.01
Experimental: Rats were anaesthetised with pentobarbital sodium and phenobarbitone sodium as above. Following i. v. injection of Evans blue (20 mg/kg, i. v.), the urinary bladder was cannulated via the urethra using a polyethylene tubing and […] xylene (30% v/v in silicone oil) were instilled within 10 s. The cannula was then left in place for a further period of 10 s. Two hours later, the animals were injected with an overdose of pentobarbitone sodium and the bladder was removed. Evans blue was extracted by incubation of the tissue in 4 ml formamide for 24 h at 55° C. for subsequent photometric measurements at 620 nm.
Plasma protein extravasation in the urinary bladder of anaesthetised rats was made 2 h after intravesical instillation of 30% (v/v) xylene […]. Control animals were treated with appropriate volumes of the vehicles ([…] silicone oil or 4 ml/kg 154 mmol/l NaCl solution, respectively). Oxytocin (1 mg/ml) was injected s. c. 1 h before administration of xylene or cyclophosphamide while control rats received DMSO (0.5 ml/kg, s. c.). Plasma protein extravasation is given as total tissue content of the protein marker, Evans blue, given i. v. (20 mg/kg) 5 min prior to the induction of cystitis.
Oxytocin was dissolved and diluted in DMSO for all experiments involving s. c. injection in volumes of 1.0 ml/kg. […]

[1] = system: magnesium deficiency-induced dermatosis; assay: atopic dermatitis-like symptoms in hypomagnesaemic hairless rats; assay type: in vivo, rat
Experimental: Male hairless rats (Ico:OFA hr/hr) were obtained from Iffa Credo (Lyon, France) immediately after weaning and housed under conventional standardised conditions in polycarbonate cages with wood chip bedding in a room with 12:12 h light/dark cycle, 24±1° C. The rats were fed with a standard maintenance diet low in magnesium (Altromin, Lage, Germany, C10350; 0.012% Mg^2+/kg dry matter) and demonised water was supplied ad libitum. This diet rendered the animals hypomagnesaemic. Magnesium (mean±SD, mmol/l) in serum fell to 0.58±0.23 on day 4, 0.36±0.18 on day 10, and to the lowest value (0.24±0.11) on day 15 on the diet. The lowest concentration was maintained up to the termination of the experiments. Under these conditions, the onset of clinical signs was after 6-8 days on the diet. The first signs were pronounced reddening and swelling of both ear lobes in all animals. […] Simultaneously with the onset of erythema, the rats began to scratch intensively and bite themselves, causing erosions and excoriations. Head, trunk, paws and tail were uniformly and intensely reddened within 2 days after the onset of signs. This stage was followed by the development of small papules and irregularly shaped plaques 1-2 cm in diameter on the trunk. The skin lesions and the signs of pruritus were most pronounced after 10-11 days on the diet, and were then constant for approximately 4 days. This acute stage was then followed by a decrease in general erythema and, subsequently, by the remission of papules and plaques within approximately 5 days. However, complete clearance was not observed.
Drug, formulations and treatment regimens: For topical administration, the oxytocin was dissolved in ethanol/propylene glycol (1 mg/ml).
The treatment was performed either unilaterally with the active drug on the right ear and with the vehicle contralaterally or bilaterally on both ears with oxytocin and vehicle, respectively. Therapeutic treatment was started immediately after clinical signs had fully developed and was given twice daily for 3 consecutive days. Prophylactic application was started on day 3 on the diet (i.e. 3-5 days before the expected onset of signs) and was given once daily for 7 days until day 9. Active drug or vehicle was applied in volumes of 20 μl to both sides of the ears.
For assessment of the therapeutic efficacy of oxytocin the animals were examined clinically once daily during the treatment period and for a further 7 days (topical treatment). Prophylactic activity was determined by daily examinations performed during the treatment period and a further 9 days. A score index (scale 0-3) for ear lesions was applied: 0, no change; 1, slight edematous, erythematous swelling; 2, moderate edematous, erythematous swelling; 3, pronounced edematous, erythematous swelling. In all experiments, the skin lesions were evaluated clinically by a single investigator unaware of the treatment allocation.

Substance: Oxytocin
- plasma protein extravasation, total Evans blue content of the urinary bladder (xylene-induced cystitis): 5.14 ± 2.58 mg
- sum of daily scores (ear lesions, scale 0-3) from day 3 to 10 ([1]; prophylactic topical, once daily day 3 to 9, vehicle-treated ears 9.2±0.7): 2.4±1.1
- time after the last dose until which signs remained suppressed ([1]; therapeutic, bilateral application, signs reappeared 4 or 5 days after the last dose): 3 days
- local erythematous swelling of the ears ([1]; therapeutic, bilateral application, within 1 day after the first dose): significantly inhibited
- local erythematous swelling of the ear ([1]; therapeutic, epicutaneously on one ear, 1 mg/ml, within 1 day after the start of treatment): significantly reduced local erythematous swelling
- systemic effect (distant erythematous lesions on the trunk and pruritus) ([1]; topical dose applied on the ears): no systemic effect

— patent US20060234919A1, “Use” (priority 2001, published 2006)
